Results from patent US4352807A, “Hexahydro-trans-pyridoindole neuroleptic agents” (Pfizer Inc., priority 1980, dated 1982).
Like-named read-outs stand apart in the source and are kept apart here.

Columns and labels:
[1] = test system: amphetamine-induced symptoms (characteristic amphetamine behaviour of cage movement); assay: Antagonism of amphetamine symptoms in rats (rat amphetamine test); type: in vivo; conditions: block of cage movement in 50% of rats; for ED50: Rattus norvegicus, sc; for ED50, rat amphetamine test, 1 hr.: 60 min; for ED50, rat amphetamine test, 5 hr.: 300 min; for ED50, rat amphetamine test, 24 hr.: 1440 min
From the text: The tranquilizing activity of the derivatives may be determined using the well known standard procedure-antagonism of amphetamine-induced symptoms in rats.
The effects of the above examples of Derivatives on prominent amphetamine-induced symptoms were studied in rats by a rating scale modeled after the one reported by Quinton and Halliwell, and Weissman. Rats were placed individually in a covered plastic cage measuring approximately 26 cm.×42 cm×16 cm. After a brief period of acclimation of the cage, the rats in each group, commonly, five animals per dose level, were treated subcutaneously (s.c.) with a selected dose of the Derivative to be tested. They were then treated 1, 5 and 24 hrs. later with d-amphetamine sulfate, 5 mg./kg. intraperitoneally (i.p.). […] The time of rating chosen coincides with the peak action of amphetamine which is 60-80 min. after dosing.

[2] = target: T1, dopamine receptors (Rattus norvegicus, UniProt P61169); assay: Inhibition of ^3 H-spiroperidol binding to dopamine receptors (rat corpus striatum homogenate); set-up: species or system rat (Sprague-Dawley CD); conditions: 0.5 nM ^3 H-spiroperidol, 10 min at 37° C.
T1 construct: brains were immediately dissected on an ice-cold glass plate to remove corpus striatum; from tissue; host or cells: rat corpus striatum, washed homogenate (Sprague-Dawley CD males)
Method: The procedure was as follows:
Rats (Sprague-Dawley CD males, 250-300 g., Charles River Laboratories, Wilmington, Mass.) were decapitated, and brains were immediately dissected on an ice-cold glass plate to remove corpus striatum (~100 mg./brain). Tissue was homogenized in 40 volumes (1 g.+40 ml). of ice-cold 50 mM. […] The tissue suspension was placed in a 37° C. water bath for 5 minutes to insure inactivation of tissue monoamine oxidase and then kept on ice until used. The incubation mixture consisted of 0.02 ml. inhibitor solution (the desired concentration of the derivative to be tested in stock solution). […] Tubes were incubated in sequence for 10 minutes at 37° C. in groups of three, after which 0.9 ml. of each incubation tube was filtered through Whatman FG/B filters using a high vacuum pump. Each filter was placed in a scintillation vial, 10 ml. of liquid scintillation fluor was added and each vial was vigorously vortexed for about five seconds. Samples were allowed to stand over night, until filters were translucent, vortexed again and then counted 1.0 minute for radioactivity. Binding was calculated as femtomales (10^-15 moles) of ^3 H-spiroperidol bound per mg. protein. Controls (vehicle or 1 butaclamol, 10^-7 M; 4.4 mg. dissolved in 200 μl. glacial acetic acid, then diluted to 2.0 ml. with DDW for 10^-4 M stock solution, kept refrigerated), blank (d-butaclamol, 10^-7 M; (4.4 mg./2 ml.) for 10^-4 M stock solution, same protocol as 1-butaclamol); and inhibitor solutions were run in triplicate. […] Insoluble drugs were dissolved in 50% ethanol (1% ethanol incubation).
**DDW=Double Distilled Water.

[3] = 1 h, s.c., d-amphetamine sulfate 5 mg/kg i.p. 1 hr after treatment, read-out: ED50, rat amphetamine test, 1 hr.
[4] = 5 h, read-out: ED50, rat amphetamine test, 5 hr., s.c., d-amphetamine sulfate 5 mg/kg i.p. 5 hr after treatment
[5] = 24 h, s.c., d-amphetamine sulfate 5 mg/kg i.p. 24 hr after treatment, read-out: ED50, rat amphetamine test, 24 hr.
[6] = s.c., d-amphetamine sulfate 5 mg/kg i.p. 1 hr after treatment
[7] = s.c., d-amphetamine sulfate 5 mg/kg i.p. 5 hr after treatment
[8] = s.c., d-amphetamine sulfate 5 mg/kg i.p. 24 hr after treatment

T1 sequence (P61169 whole entry): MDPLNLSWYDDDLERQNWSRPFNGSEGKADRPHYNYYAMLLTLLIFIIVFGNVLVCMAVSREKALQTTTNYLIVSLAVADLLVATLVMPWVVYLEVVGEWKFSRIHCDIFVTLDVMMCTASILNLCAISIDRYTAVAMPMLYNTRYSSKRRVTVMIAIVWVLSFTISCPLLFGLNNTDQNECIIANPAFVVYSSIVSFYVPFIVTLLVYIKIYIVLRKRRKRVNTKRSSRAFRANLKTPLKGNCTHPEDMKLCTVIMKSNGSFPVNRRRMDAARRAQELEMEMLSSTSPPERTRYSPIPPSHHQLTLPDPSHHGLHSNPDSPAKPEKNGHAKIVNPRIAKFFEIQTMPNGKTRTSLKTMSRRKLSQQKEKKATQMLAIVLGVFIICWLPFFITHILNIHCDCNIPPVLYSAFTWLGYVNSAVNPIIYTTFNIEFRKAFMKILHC

| Compound | IC50 [2] [µM] | ED50 [1, 3] [mg/kg] | ED50 [1, 4] [mg/kg] | ED50 [1, 5] [mg/kg] | ED50, rat amphetamine test, 1 hr. [1, 6] [mg/kg] | ED50, rat amphetamine test, 5 hr. [1, 7] [mg/kg] | ED50, rat amphetamine test, 24 hr. [1, 8] [mg/kg] |
| --- | --- | --- | --- | --- | --- | --- | --- |
| O=C(NCCCCN1CC[C@H]2[C@H](C1)c1cc(F)ccc1N2c1ccc(F)cc1)c1ccccc1 (relative stereo) [Example 13, (±) 2-(N--benzoyl-1'-amino-n-but-4'-yl)] |  | 0.1 to 0.3 | 0.01 to 0.03 | 0.3 to 1 |  |  |  |
| CCOC(=O)NCCCCN1CC[C@H]2[C@H](C1)c1cc(F)ccc1N2c1ccc(F)cc1 (relative stereo) [Example 14, (±) 2-(N--ethoxycarbonyl-1'-amino-n-but-4'-yl)] | 0.011 | 0.05 | 0.02 | 0.3 |  |  |  |
| CC(=O)NCCCN1CC[C@H]2[C@H](C1)c1cc(F)ccc1N2c1ccc(F)cc1 (relative stereo) [Example 7, (±) 2-(N--acetyl-1'-amino-n-prop-3-yl)] | 0.01 |  |  |  |  |  |  |
| Cc1ccc(S(=O)(=O)NCCCCN2CC[C@H]3[C@H](C2)c2cc(F)ccc2N3c2ccc(F)cc2)cc1 (relative stereo) [Example 16, (±) 2-(N--p-toluenesulfonyl-1'-amino-n-but-4'-yl)] |  | 1 | 1 |  |  |  |  |
| CC(=O)NCCCCN1CCC2C(C1)c1cc(F)ccc1N2c1ccc(F)cc1 (single isomer, unassigned; (-)) [Example 12, (-) enantiomer of 2-(N--acetyl-1'-amino-n-but-4'-yl)] | 1 |  |  |  | 1 | 1 | 1 |
| COc1ccccc1C(=O)NCCCCN1CC[C@H]2[C@H](C1)c1cc(F)ccc1N2c1ccc(F)cc1 (relative stereo) [Example 15, (±) 2-[N--(o-methoxybenzoyl)-1'-amino-n-but-4'-yl]] | 0.014 | 0.45 | 0.18 | 1 |  |  |  |
| CC(=O)NCCCCN1CCC2C(C1)c1cc(F)ccc1N2c1ccc(F)cc1 (single isomer, unassigned; (+)) [Example 11, (+) enantiomer of 2-(N--acetyl-1-'-amino-n-but-4-yl)] | 0.0047 |  |  |  | 0.02 | 0.006 | 0.28 |
| NCCCCN1CC[C@H]2[C@H](C1)c1cc(F)ccc1N2c1ccc(F)cc1 (relative stereo) [Example 2, (±)2-(1'-amino-n-but-4'-yl)-5-(p-fluorophenyl)-8-fluoro-2,3,4,4a,5,9b-hexahydro-trans-4a,9b-1(H)-pyrido[4,3-b]indole] | 0.024 | 17.7 | 4.5 to 11.5 | 17.7 |  |  |  |
| CC(=O)NCCCCN1CC[C@H]2[C@H](C1)c1ccccc1N2c1ccccc1 (relative stereo) [Example 17, (±) 2-(N--acetyl-1'-amino-n-but-4'-yl)-5-phenyl-2,3,4,-4a,9b-hexahydro-trans-4a,9b-1(H)-pyrido[4,3-b]indole] | 0.016 |  |  |  |  |  |  |
| CC(=O)NCCN1CC[C@H]2[C@H](C1)c1cc(F)ccc1N2c1ccc(F)cc1 (relative stereo) [Example 6, 2-(N-acetyl-2-aminoethyl)-5-(p-fluorophenyl)-8-fluoro-2,3,4,4a,5,9b-hexahydro-trans-4a,9b-1(H)-pyrido[4,3-b]indole] | 0.016 | 0.11 | 0.36 | 1 |  |  |  |

Continued, in another order:

| IC50 [2] [µM] | Compound | ED50 [1, 3] [mg/kg] | ED50 [1, 4] [mg/kg] | ED50 [1, 5] [mg/kg] | ED50, rat amphetamine test, 1 hr. [1, 6] [mg/kg] | ED50, rat amphetamine test, 5 hr. [1, 7] [mg/kg] | ED50, rat amphetamine test, 24 hr. [1, 8] [mg/kg] |
| --- | --- | --- | --- | --- | --- | --- | --- |
| 0.009 | CC(=O)NCCCCCCCN1CC[C@H]2[C@H](C1)c1cc(F)ccc1N2c1ccc(F)cc1 (relative stereo) [Example 10, (±) 2-(N--acetyl-1'-amino-n-hept-7'-yl)] | 0.09 | 0.018 | 0.05 |  |  |  |
| 0.008 | CC(=O)NCCCCCCN1CC[C@H]2[C@H](C1)c1cc(F)ccc1N2c1ccc(F)cc1 (relative stereo) [Example 9, (±) 2-(N--acetyl-1'-amino-n-hex-6'-yl)] | 0.023 | 0.002 | 0.032 |  |  |  |
| 0.013 | CC(=O)NCCCCN1CC[C@H]2[C@H](C1)c1cc(F)ccc1N2c1ccc(F)cc1 (relative stereo) [Example 3, (±)2-(N-acetyl-1'-amino-n-but-4'-yl)-5-(p-fluorophenyl)-8-fluoro-2,3,4,4a,5,9b-hexahydro-trans-4a,9b-1(H)-pyrido[4,3-b]indole] | 0.02 | 0.006 | 0.66 |  |  |  |
| 0.009 | CC(=O)NCCCCCN1CC[C@H]2[C@H](C1)c1cc(F)ccc1N2c1ccc(F)cc1 (relative stereo) [Example 8, (±) 2-(N--acetyl-1'-amine-n-pent-5'-yl)] | 0.01 | 0.004 | 0.4 |  |  |  |
